Consider eight compounds from PubChem BioAssay (NCI).

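Cells were grown in 96-well plates and exposed to each compound for 48 hours at five concentrations; endpoints were interpolated linearly between bracketing concentrations, or set to the highest concentration if not reached. Here, GI50 denotes the concentration required for 50% inhibition of growth. At the TGI there is no net growth.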 Where only a bound is given, the exact number is not on record here.

Among the test systems are CAKI-1 renal; CCRF-CEM leukemia; DU-145 prostate; MDA-MB-231 breast; MOLT-4 leukemia; NCI-H226 lung; OVCAR-3 ovarian; PC-3 prostate; SN12C renal; SNB-19 CNS.
Common to all, as to experiment: NCI-60 cell line screen, 48 h

As to `O=C(Nc1ccc(Oc2ccc(NC(=O)Nc3ccc([N+](=O)[O-])cc3)cc2)cc1)Nc1ccc([N+](=O)[O-])cc1`, the GI50 is 2340 nM in the assay with CAKI-1 renal; 610 nM with CCRF-CEM leukemia; 2440 nM in the assay on DU-145 prostate; 1650 nM with MDA-MB-231 breast; 1190 nM in the assay on MOLT-4 leukemia; 2900 nM in the assay with NCI-H226 lung. Also, the GI50 in the assay on OVCAR-3 ovarian was 2120 nM; with PC-3 prostate, 1040 nM; with SN12C renal it was 2160 nM; in the assay with SNB-19 CNS it was 3.34 µM. Besides, the TGI with CAKI-1 renal is 7.55 µM; in the assay on CCRF-CEM leukemia it was 3.22 µM; in the assay on DU-145 prostate, above 100 µM; in the assay with MDA-MB-231 breast, 7.2 µM; in the assay with MOLT-4 leukemia it was 4.8 µM; in the assay with NCI-H226 lung, 27.8 µM. For the same compound, the TGI in the assay on OVCAR-3 ovarian is above 30.3 µM; with PC-3 prostate, above 22.8 µM; in the assay with SN12C renal, above 84.7 µM; with SNB-19 CNS, above 100 µM.

Regarding `COc1cc(OC)c(F)c(COc2cnc(Nc3cnn(CCO)c3)nc2)c1F`, the GI50 in the assay on CAKI-1 renal was 394 nM; in the assay with CCRF-CEM leukemia, 669 nM; in the assay on DU-145 prostate it was 2150 nM; with MDA-MB-231 breast, 1380 nM; with MOLT-4 leukemia, 668 nM; with NCI-H226 lung, 343 nM. Further, the GI50 was 429 nM in the assay on OVCAR-3 ovarian, 1680 nM with PC-3 prostate, 1590 nM with SN12C renal and 0.796 µM in the assay with SNB-19 CNS. Further, the TGI in the assay with CAKI-1 renal is 2.87 µM; in the assay with CCRF-CEM leukemia, above 100 µM; in the assay with DU-145 prostate, above 100 µM; in the assay with MDA-MB-231 breast, 7.64 µM; in the assay on MOLT-4 leukemia it was above 100 µM; in the assay on NCI-H226 lung, above 23.9 µM. Further, the TGI in the assay on OVCAR-3 ovarian, in the assay on PC-3 prostate, in the assay on SN12C renal and in the assay on SNB-19 CNS was above 100 µM each time.

Consider `O=C(O)c1cn(C2CC2)c2cc(N3CCNCC3)c(F)cc2c1=O`, for which the GI50 with CAKI-1 renal, with CCRF-CEM leukemia, in the assay on DU-145 prostate, with MDA-MB-231 breast, with NCI-H226 lung and in the assay with OVCAR-3 ovarian was above 100000 nM each time. In addition, the GI50 in the assay on PC-3 prostate and in the assay on SN12C renal was above 100000 nM each time. Besides, the TGI in the assay on CAKI-1 renal, in the assay on CCRF-CEM leukemia, in the assay with DU-145 prostate, with MDA-MB-231 breast, in the assay on NCI-H226 lung and in the assay on OVCAR-3 ovarian was above 100 µM each time. Also, the TGI in the assay with PC-3 prostate and in the assay on SN12C renal was above 100 µM throughout.

On to `O=C(Oc1ccccc1Cl)c1ccccc1Nc1cccc(C(F)(F)F)c1`, for which the GI50 was 20700 nM in the assay with CAKI-1 renal; 3420 nM with CCRF-CEM leukemia; 31800 nM in the assay with DU-145 prostate; 20200 nM in the assay with MDA-MB-231 breast; 3890 nM in the assay on MOLT-4 leukemia; 20200 nM with NCI-H226 lung. Further, the GI50 is 15400 nM with OVCAR-3 ovarian, 26000 nM in the assay on PC-3 prostate, 23400 nM with SN12C renal and 73.2 µM in the assay with SNB-19 CNS. The TGI in the assay on CAKI-1 renal is 49 µM; with CCRF-CEM leukemia, 12.3 µM; with DU-145 prostate it was 89 µM; in the assay with MDA-MB-231 breast it was 48.3 µM; in the assay with MOLT-4 leukemia, 14.6 µM; in the assay on NCI-H226 lung, 47.9 µM. In addition, the TGI in the assay with OVCAR-3 ovarian is 32.9 µM; in the assay on PC-3 prostate it was above 100 µM; in the assay with SN12C renal, above 100 µM; in the assay with SNB-19 CNS, above 100 µM.

For the compound `CCOc1cc2c(=O)oc3c(OC)ccc4ccc(c1OC)c2c43`, the TGI is above 100 µM in the assay on CAKI-1 renal; above 100 µM in the assay on CCRF-CEM leukemia; above 100 µM in the assay with DU-145 prostate; 97.5 µM with MDA-MB-231 breast; above 100 µM in the assay with MOLT-4 leukemia; above 100 µM in the assay with NCI-H226 lung. Further, the TGI in the assay on OVCAR-3 ovarian, in the assay on PC-3 prostate, in the assay on SN12C renal and in the assay on SNB-19 CNS was above 100 µM each time.

On to `CCCCCCCCCCCCCCCC(=O)OCC1OC(OC)C(NC(=O)N(CCCl)N=O)C(O)C1O` (centres undefined), for which the TGI was 45.4 µM in the assay on CAKI-1 renal; 53.7 µM in the assay with CCRF-CEM leukemia; 92.6 µM in the assay on DU-145 prostate; 35.5 µM in the assay with MDA-MB-231 breast; 29.2 µM in the assay with MOLT-4 leukemia; 39.7 µM with NCI-H226 lung. Also, the TGI in the assay on OVCAR-3 ovarian was 48.6 µM; with PC-3 prostate, 51.7 µM; in the assay on SN12C renal it was 39.3 µM; in the assay with SNB-19 CNS, above 67.2 µM.

In the case of `O=C(CCN1CCCC1)Nc1ccc2c(NCCc3ccccc3)c3ccccc3nc2c1`, the GI50 in the assay with CAKI-1 renal is 1500 nM; with CCRF-CEM leukemia it was 311 nM; in the assay on DU-145 prostate it was 367 nM; in the assay with MDA-MB-231 breast, 452 nM; with MOLT-4 leukemia it was 296 nM; in the assay on NCI-H226 lung, 374 nM. The GI50 was 454 nM in the assay with OVCAR-3 ovarian, 406 nM in the assay on PC-3 prostate, 358 nM in the assay with SN12C renal and 0.385 µM in the assay on SNB-19 CNS. Besides, the TGI in the assay on CAKI-1 renal was 5.68 µM; in the assay on CCRF-CEM leukemia, 1.77 µM; in the assay on DU-145 prostate it was 1.36 µM; in the assay with MDA-MB-231 breast, 1.82 µM; in the assay on MOLT-4 leukemia it was 1.56 µM; in the assay with NCI-H226 lung it was 1.95 µM. The TGI was 1.73 µM in the assay on OVCAR-3 ovarian, 1.55 µM with PC-3 prostate, 1.45 µM with SN12C renal and 1.61 µM with SNB-19 CNS.

For `Cc1cc(NCc2cc(Nc3ccnc4cc(Cl)ccc34)ccc2F)nc(N2CCSCC2)n1`, the GI50 with CAKI-1 renal was 1510 nM; in the assay on CCRF-CEM leukemia it was 473 nM; in the assay on DU-145 prostate it was 3310 nM; in the assay on MDA-MB-231 breast it was 1640 nM; with MOLT-4 leukemia, 2120 nM; in the assay with NCI-H226 lung, 2710 nM. Also, the GI50 is 1590 nM in the assay with OVCAR-3 ovarian, 1500 nM with PC-3 prostate and 4.23 µM in the assay with SNB-19 CNS. For the same compound, the TGI in the assay with CAKI-1 renal was 3.19 µM; with CCRF-CEM leukemia it was above 100 µM; in the assay with DU-145 prostate it was 15.7 µM; with MDA-MB-231 breast, 3.63 µM; with MOLT-4 leukemia, 7.07 µM; in the assay with NCI-H226 lung, 12.1 µM. The results for the TGI with OVCAR-3 ovarian, in the assay on PC-3 prostate and in the assay with SNB-19 CNS were 2.93 µM, 4.35 µM and 60.7 µM, respectively.
